In patent publication US10617694B2 (priority 2016, dated 2020):
Read-outs that look alike come from different tables or passages of the source.

Assays:
[1] = tested on: patients with obstructive sleep apnea; experiment: Table 1 summary of efficacy and side effects in sleep apnea, compared with acetazolamide, topiramate and zonisamide data; format: in vivo, human; design: key to Side effect paresthesia (P) (scale 0-3) / Side effect cognitive dysfunction (C) (scale 0-3): 1 = none; 2 = low; 3 = medium; 4 = high; Reduction in AHI: concentration or dose not given beside the values; settings: for Side effect total rating (T) (scale 0-3): T = (P + 2C)/3, Table 1; for Reduction in AHI: own data: sultiame Examples 1 and 2 (n = 3); for Reduction in AHI / Efficacy AHI reduction (rating 0-3) / Side effect cognitive dysfunction (C) (scale 0-3) / Side effect paresthesia (P) (scale 0-3): acetazolamide Example 2; for Efficacy AHI reduction (rating 0-3) / Side effect cognitive dysfunction (C) (scale 0-3) / Side effect paresthesia (P) (scale 0-3): own data: sultiame Examples 1 and 2, topiramate unpublished data
Source text: The results from Example 1 and 2 are summarized in table 1, below, where the results are further compared with data reflecting the effect of acetazolamide, topiramate and zonisamide in sleep apnea.

[2] = tested on: patients with obstructive sleep apnea; design: key to Side effect paresthesia (P) (scale 0-3) / Side effect cognitive dysfunction (C) (scale 0-3): 1 = none; 2 = low; 3 = medium; 4 = high; settings: cited from earlier work; for Reduction in AHI / Reported adverse events. Frequency (n/patient): literature: acetazolamide meta data from 9 publications (n = 268), zonisamide Eskandari et al. (n = 13); for Efficacy AHI reduction (rating 0-3) / Side effect cognitive dysfunction (C) (scale 0-3) / Side effect paresthesia (P) (scale 0-3): literature: acetazolamide meta data, zonisamide Eskandari et al.
healthy volunteers = experiment: Clinical trial on tolerability of a high dose of sultiame in healthy volunteers; format: in vivo, human
Description: Most earlier clinical trials have been carried out in patients diagnosed with epilepsy. The goal of this study was to investigate the tolerability of sultiame in non-epileptic patients.
The trial involved 16 healthy volunteers. […] The administration was carried out without ramping up the dose. There were only two reports of adverse events in this group of 16 volunteers (32 dosing occasions, 12.5% of individuals or 6.25% of dosing occasions). These adverse events were limited to short periods of headache, which occurred when the drug was administered without food. The headache resolved within a short time frame.

[3] = tested on: patient with obstructive sleep apnea; experiment: Repeated dosing of sultiame in obstructive sleep apnea, repeated sleep studies (Example 1); format: in vivo, human; settings: for central AHI: baseline 3.2 n/h; for obstructive AHI: baseline 12.4 n/h; for AHI: baseline 16.6 n/h; for lowest saturation: baseline 87%; for mean oxygen saturation: baseline 95.3%
Source text: Person, BMI 28.3 kg/m^2. The subject was a non-smoker and there was no history of cardiovascular or metabolic disease and no regular medication. This subject presented with a history of snoring, witnessed apneas, and increased daytime sleepiness. They had previously tested both CPAP and mandibular advancement therapy with moderate regression of symptoms. The subject had experienced intolerable side effects including dry airways and sneezing caused by CPAP therapy. They had experienced discomfort from the temporomandibular joints following use of an intraoral device for mandibular advancement.
There had been a weight gain corresponding to 2 kg during the last three years.
It was decided that sultiame should be tested. Repeated sleep studies were undertaken before and after therapy with sultiame.
This second assessment provided the following values: AHI 9.8 n/h (central AHI 2.2 n/h and obstructive AHI 7.6/h), mean oxygen saturation 95.8%, lowest saturation 89%, and periodic breathing pattern 10.1 minutes.
There had been a weight reduction corresponding to 1.2 kg

[4] = tested on: subjects with obstructive sleep apnea; experiment: Long term effect of sultiame and acetazolamide in obstructive sleep apnea, sleep studies (Example 2); settings: for AHI at follow-up: sultiame 200 mg single daily dose for three months
[5] = cited from earlier work
Carbonic anhydrase (CA) = experiment: Carbonic anhydrase activity in venous blood from a patient with obstructive sleep apnea (pH curve AUC); format: biochemical, human; settings: diluted hemolysed blood of one OSA patient
Description: Carbonic anhydrase (CA) activity was assessed in human plasma from an apnea patient using a method previously described in detail (Teng et al, Sleep 2016). […] The blood sample (antecubital vein) was collected in an EDTA-coated tube, stored within 30 min at −20° C. and subsequently transferred to −70° C. Prior to analysis, the sample was slowly thawed, refrozen and re-thawed on ice in order to obtain hemolysis. The assay was adapted from a method previously described by Everaert et al (ref in Teng et al, Sleep 2016). In detail, a buffer consisting of 0.02M HEPES, 0.02M MES, 0.035M KCl and 0.015M NaCl with a balanced capacity in the pH 6-8 range was prepared. The subsequent analysis was conducted on ice in order to maintain a temperature of around 0-1° C. A separate solution constituting of 200 ml of 0-1° C. distilled water was continuously flushed with 100% CO2 and kept at 0-1° C. for at least 30 min. […] The pH in the reaction vessel was continuously monitored at 1 Hz during 120 s. […] The intra- and inter assay variability was 5.0% and 7.6%, respectively. pH curves were plotted and analysed (FIG. 1). In order to reflect time of the catalysed reaction the area under the curve (AUC, range 802-837) was calculated as the sum of all pH assessments during 120 sec. […]

[6] = own data: acetazolamide Example 2, topiramate unpublished data (n = 4)
[7] = topiramate unpublished data (n = 4)
[8] = 100 mg orally once daily, after 5 days
[9] = sultiame 200 mg daily for three months, both subjects

CC1(C)O[C@@H]2[C@@H](CO[C@@]3(COS(N)(=O)=O)OC(C)(C)O[C@@H]23)O1 [Topiramate]
Side effect total rating (T) (scale 0-3) [1]: 3.7 | Reported adverse events. Frequency (n/patient) [1, 6]: 0.75/patient | Reduction in AHI [1, 7]: 28.0% | Reduction in AHI ([1]; topiramate unpublished data (n = 4), listed as topiramate): 28.0% | Efficacy AHI reduction (rating 0-3) [1]: 1 (5-<30% = 1) | Side effect cognitive dysfunction (C) (scale 0-3) [1]: 4 | Side effect paresthesia (P) (scale 0-3) [1]: 3

NS(=O)(=O)Cc1noc2ccccc12 [Zonisamide]
Side effect total rating (T) (scale 0-3) [1]: 3.3 | Reduction in AHI [2]: 20.7% | Reported adverse events. Frequency (n/patient) [2]: 0.44/patient | Reduction in AHI ([2]; listed as zonisamide): 20.7% | Efficacy AHI reduction (rating 0-3) [2]: 1 (5-<30% = 1) | Side effect cognitive dysfunction (C) (scale 0-3) [2]: 4 | Side effect paresthesia (P) (scale 0-3) [2]: 2

NS(=O)(=O)c1ccc(N2CCCCS2(=O)=O)cc1 [Sultiame]
Side effect total rating (T) (scale 0-3) [1]: 1 | Reduction in AHI [1, 7]: 62.7% | Reduction in AHI ([1]; topiramate unpublished data (n = 4), listed as sultiame): 62.7% | Efficacy AHI reduction (rating 0-3) [1]: 3 (≥50% = 3) | Side effect cognitive dysfunction (C) (scale 0-3) [1]: 1 | Side effect paresthesia (P) (scale 0-3) [1]: 1 | Reported adverse events. Frequency (n/patient) ([1]; sultiame, Examples 1 and 2 (n = 3)): 0% (AHI reduction 0-5 < % = 0) | adverse effects after administration ([1]; sultiame, patients with obstructive sleep apnea, Examples 1 and 2): not observed | tolerability at high doses (healthy volunteers; 200 mg without ramping up the dose, healthy volunteers): excellent tolerability | reports of adverse events (short periods of headache, drug administered without food) (healthy volunteers; 200 mg, 16 volunteers, 32 dosing occasions): two | adverse events, % of dosing occasions (healthy volunteers; 200 mg, 32 dosing occasions, 16 healthy volunteers): 6.25% | adverse events, % of individuals (healthy volunteers; 200 mg, two times (with and without prior food intake), 16 healthy volunteers): 12.5% | daytime symptoms of sleepiness [3, 8]: general resolution of daytime symptoms of sleepiness | central AHI [3, 8]: 2.2 n/h | obstructive AHI [3, 8]: 7.6 h⁻¹ | AHI [3, 8]: 9.8 n/h | lowest saturation [3, 8]: 89% | mean oxygen saturation [3, 8]: 95.8% | periodic breathing pattern ([3]; 100 mg orally once daily, after 5 days, baseline 14.3 minutes): 10.1 min | central AHI ([3]; 200 mg once daily for 14 days): 1.2 n/h | obstructive AHI ([3]; 200 mg once daily for 14 days): 3.0 n/h | AHI ([3]; 200 mg once daily for 14 days): 4.2 n/h | lowest saturation ([3]; 200 mg once daily for 14 days): 90% | mean oxygen saturation ([3]; 200 mg once daily for 14 days): 96.7% | periodic breathing pattern duration ([3]; 200 mg once daily for 14 days, baseline 14.3 minutes): 2.8 min | dose dependence of AHI reduction ([3]; 200 mg once daily versus 100 mg once daily): reduced AHI in a dose-dependent manner | AHI at follow-up ([4]; first subject, day 89, before 17.4 n/h): 7.6 n/h | AHI at follow-up ([4]; second subject, day 90, before 15.2 n/h): 6.5 n/h | daytime sleepiness ([4]; sultiame 200 mg daily for three months, both cases): reduction of daytime sleepiness | side effects: paraesthesia [4, 9]: not reported | snoring [4, 9]: reduced snoring | tolerability [4, 9]: well tolerated by both subjects | effectiveness in decreasing sleep apnea versus acetazolamide ([4]; sultiame 200 mg daily versus acetazolamide 500 mg o.d.): considerably more effective than acetazolamide | half-life in plasma [5]: about 24 hrs

CC(=O)Nc1nnc(S(N)(=O)=O)s1 [Acetazolamide]
Side effect total rating (T) (scale 0-3) [1]: 2.7 | Reported adverse events. Frequency (n/patient) [1, 6]: 1.0/patient | Reduction in AHI [1, 7]: 28.0% | Efficacy AHI reduction (rating 0-3) [1]: 1 (5-<30% = 1) | Side effect cognitive dysfunction (C) (scale 0-3) [1]: 2 | Side effect paresthesia (P) (scale 0-3) [1]: 4 | CA activity after compound (peak inhibition), arbitrary units 850-AUC (Carbonic anhydrase (CA); 0-1° C., 120 s, activity without compound 32, concentrations 1×10^−11 to 5×10^−9 M): 19.5 units | reduction of CA activity (Carbonic anhydrase (CA); reduction from 32 units): 39% | side effects: paraesthesia ([4]; acetazolamide 500 mg o.d., both subjects): both subjects developed peripheral paraesthesia | oxygen desaturation index (ODI) ([4]; first subject, acetazolamide 500 mg o.d., 10 days after start, before 16.6 n/h): 12.6 n/h | AHI ([4]; first subject, acetazolamide 500 mg o.d., 10 days after start, before 17.4 n/h): 13.4 n/h | oxygen desaturation index (ODI) ([4]; second subject, acetazolamide 500 mg o.d., 16 days after start, before 12.6 n/h): 9.2 n/h | AHI ([4]; second subject, acetazolamide 500 mg o.d., 16 days after start, before 15.2 n/h): 10.2 n/h | Reduction in AHI [2]: 37.3% | Reported adverse events. Frequency (n/patient) [2]: 1.08/patient | Reduction in AHI ([2]; listed as acetazolamide): 37.3% | Efficacy AHI reduction (rating 0-3) [2]: 2 (30-<50% = 2) | Side effect cognitive dysfunction (C) (scale 0-3) [2]: 2 | Side effect paresthesia (P) (scale 0-3) [2]: 4
